Among the data in ChEMBL document CHEMBL4017496 (J Med Chem, 2017) are Activity and inhibition values, retold here.

Experiment [1] has as its target T1, Oxysterols receptor LXR-alpha (Homo sapiens) (UniProt Q13133).
T1 sequence (whole entry): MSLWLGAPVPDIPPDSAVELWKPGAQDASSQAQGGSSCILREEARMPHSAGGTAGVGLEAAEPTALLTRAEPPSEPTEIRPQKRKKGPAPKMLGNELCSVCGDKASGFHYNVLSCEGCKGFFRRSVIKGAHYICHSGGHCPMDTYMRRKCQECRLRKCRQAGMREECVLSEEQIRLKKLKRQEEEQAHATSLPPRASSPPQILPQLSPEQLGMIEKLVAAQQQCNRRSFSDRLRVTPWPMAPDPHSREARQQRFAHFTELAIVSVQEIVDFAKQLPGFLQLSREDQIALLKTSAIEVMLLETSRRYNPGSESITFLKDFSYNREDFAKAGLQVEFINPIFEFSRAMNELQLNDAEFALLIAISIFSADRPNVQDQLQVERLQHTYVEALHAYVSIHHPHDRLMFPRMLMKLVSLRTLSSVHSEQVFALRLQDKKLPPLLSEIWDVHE
Briefly: Binding affinity to human LXRalpha at 4 uM by TR-FRET assay.

The target of experiment [2] is T2, Glucocorticoid receptor (Homo sapiens) (UniProt P04150).
T2 sequence (whole entry): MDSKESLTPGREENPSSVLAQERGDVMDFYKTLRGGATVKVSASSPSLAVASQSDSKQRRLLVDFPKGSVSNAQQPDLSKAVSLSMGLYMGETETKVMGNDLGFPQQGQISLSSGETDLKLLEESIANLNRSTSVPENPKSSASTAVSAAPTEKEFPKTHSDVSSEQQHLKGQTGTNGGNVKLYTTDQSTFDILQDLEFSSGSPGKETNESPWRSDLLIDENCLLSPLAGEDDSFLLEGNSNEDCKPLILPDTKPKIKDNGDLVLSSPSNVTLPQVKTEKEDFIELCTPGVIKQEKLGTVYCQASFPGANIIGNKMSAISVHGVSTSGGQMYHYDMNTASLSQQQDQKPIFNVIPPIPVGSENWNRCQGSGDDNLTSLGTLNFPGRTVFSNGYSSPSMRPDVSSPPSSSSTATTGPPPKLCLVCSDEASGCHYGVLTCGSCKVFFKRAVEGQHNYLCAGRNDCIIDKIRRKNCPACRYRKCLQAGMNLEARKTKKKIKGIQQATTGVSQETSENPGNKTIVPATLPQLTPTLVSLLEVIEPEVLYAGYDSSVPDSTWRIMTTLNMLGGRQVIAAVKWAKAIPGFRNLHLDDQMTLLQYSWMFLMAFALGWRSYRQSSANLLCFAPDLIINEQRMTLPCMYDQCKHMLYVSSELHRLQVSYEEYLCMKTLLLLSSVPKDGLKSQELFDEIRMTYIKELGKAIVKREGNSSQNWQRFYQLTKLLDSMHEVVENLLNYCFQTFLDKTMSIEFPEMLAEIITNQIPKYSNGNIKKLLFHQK
Briefly: Displacement of Fluormone-GS1 from human GST-tagged glucocorticoid receptor LBD at 4 uM by TR-FRET assay.

In experiment [3] the target is T3, Peroxisome proliferator-activated receptor alpha (Homo sapiens) (UniProt Q07869).
T3 sequence (whole entry): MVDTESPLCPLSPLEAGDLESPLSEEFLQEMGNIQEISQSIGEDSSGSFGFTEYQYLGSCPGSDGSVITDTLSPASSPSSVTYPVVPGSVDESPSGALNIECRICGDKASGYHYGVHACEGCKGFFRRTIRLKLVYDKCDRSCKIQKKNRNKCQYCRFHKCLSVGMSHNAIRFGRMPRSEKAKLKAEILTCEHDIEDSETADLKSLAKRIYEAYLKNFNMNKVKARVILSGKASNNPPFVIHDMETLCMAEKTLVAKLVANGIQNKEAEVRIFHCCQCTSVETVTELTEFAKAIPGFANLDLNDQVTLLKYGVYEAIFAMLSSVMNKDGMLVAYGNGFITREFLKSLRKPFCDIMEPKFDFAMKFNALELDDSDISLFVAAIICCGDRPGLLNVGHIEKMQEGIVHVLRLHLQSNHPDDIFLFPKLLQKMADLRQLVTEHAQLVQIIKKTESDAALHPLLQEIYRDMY
Briefly: Displacement of Fluormone-Pan-PPAR Green from human GST-tagged PPARalpha LBD at 20 uM by TR-FRET assay relative to control.

Experiment [4] addresses T4, Peroxisome proliferator-activated receptor gamma (Homo sapiens) (UniProt P37231).
T4 sequence (whole entry): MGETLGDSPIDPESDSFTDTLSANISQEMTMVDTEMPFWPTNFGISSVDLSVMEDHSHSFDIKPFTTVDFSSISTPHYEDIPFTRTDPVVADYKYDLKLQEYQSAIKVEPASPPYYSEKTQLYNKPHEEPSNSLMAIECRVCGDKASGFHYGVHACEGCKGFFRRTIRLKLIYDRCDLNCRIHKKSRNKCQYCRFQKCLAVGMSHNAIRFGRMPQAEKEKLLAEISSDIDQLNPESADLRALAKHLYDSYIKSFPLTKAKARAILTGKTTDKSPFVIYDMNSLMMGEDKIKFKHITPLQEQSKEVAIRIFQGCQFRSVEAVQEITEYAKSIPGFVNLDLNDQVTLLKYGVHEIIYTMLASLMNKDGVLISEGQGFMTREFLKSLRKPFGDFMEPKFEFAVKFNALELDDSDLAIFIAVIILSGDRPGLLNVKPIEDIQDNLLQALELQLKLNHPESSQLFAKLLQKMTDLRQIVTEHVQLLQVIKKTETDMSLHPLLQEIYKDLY
Put plainly: Displacement of Fluormone-Pan-PPAR Green from human GST-tagged PPARgamma LBD at 20 uM by TR-FRET assay relative to control.

The target of experiment [5] is T4, Peroxisome proliferator-activated receptor gamma (Homo sapiens). Put plainly: Transactivation of human PPARgamma expressed in African green monkey CV1 cells at 10 uM by luciferase reporter gene assay relative to control. The format is cell-based.
Experiment [6] has as its target Peroxisome proliferator-activated receptor delta (Homo sapiens) (UniProt Q03181). Put plainly: Antagonist activity at human GST-tagged PPARdelta LBD assessed as reduction in GW501516-induced fluorescein-C33 coactivator recruitment at 1 uM by TR-FRET assay relative to control.

Activity calls are given as the source filed them. The rule behind the calls is not given here.

Sequence of Peroxisome proliferator-activated receptor delta (Homo sapiens) (Q03181 whole entry, looked up, the tested form may be a part): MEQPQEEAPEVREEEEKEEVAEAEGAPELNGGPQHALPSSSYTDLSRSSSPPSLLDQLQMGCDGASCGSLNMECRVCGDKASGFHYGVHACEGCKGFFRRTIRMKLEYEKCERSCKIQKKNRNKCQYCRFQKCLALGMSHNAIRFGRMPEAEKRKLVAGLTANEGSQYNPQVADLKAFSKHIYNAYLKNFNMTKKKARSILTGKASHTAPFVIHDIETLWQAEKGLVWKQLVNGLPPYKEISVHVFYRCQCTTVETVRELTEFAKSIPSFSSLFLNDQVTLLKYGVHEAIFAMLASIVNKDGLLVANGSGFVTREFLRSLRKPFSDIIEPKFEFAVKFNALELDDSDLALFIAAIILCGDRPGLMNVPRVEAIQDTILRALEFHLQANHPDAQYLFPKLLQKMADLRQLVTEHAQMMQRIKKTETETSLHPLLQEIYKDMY

Turning to `CNC(=O)[C@H]1O[C@@H](n2cnc3c(NCc4cccc(I)c4)ncnc32)[C@H](O)[C@@H]1O` [IB-MECA], in experiment [1], the result was inactive. For the same compound, in experiment [2], the inhibition result is “inactive”. In addition, the inhibition in experiment [3] was 16%; in experiment [4], 22.2%; in experiment [6], 14%. The compound also returned an Activity in experiment [5] of 29.9%.
